The results in this text go back to patent publication US12043632B2, “6-heteroaryloxy benzimidazoles and azabenzimidazoles as JAK2 inhibitors” (Ajax Therapeutics, Inc., priority 2020, dated 2024).

A value given as a limit tells only on which side of the number the result lay.

One may read the Kd as the free concentration of one partner at which half of the binding sites on the other are occupied at equilibrium, for simple one-to-one binding.

T1 sequence (O60674 849-1124 Y1007F/Y1008F limits assumed): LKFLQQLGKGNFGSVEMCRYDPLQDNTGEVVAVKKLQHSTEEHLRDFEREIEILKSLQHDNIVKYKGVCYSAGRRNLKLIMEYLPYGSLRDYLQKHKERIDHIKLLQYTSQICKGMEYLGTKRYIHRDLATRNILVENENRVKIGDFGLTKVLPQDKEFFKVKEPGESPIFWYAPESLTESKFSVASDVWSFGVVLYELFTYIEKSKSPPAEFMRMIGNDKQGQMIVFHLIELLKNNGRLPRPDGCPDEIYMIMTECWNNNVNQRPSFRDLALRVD

This experiment addresses T1, JAK2 (JH1domain-catalytic, Y1007F,Y1008F) kinase (Homo sapiens, UniProt O60674, Y1007F/Y1008F).
T1 construct: JAK2 (JH1domain-catalytic, Y1007F,Y1008F) kinase was expressed as N-terminal fusion; made in house; host or cells: transiently transfected HEK293 cells
Kind of experiment: JAK2 JH1 Domain Binding Assay. As to conditions: qPCR readout. (In general: Quantitative PCR measures a nucleic acid by following its amplification.)
`CNc1cn2ncc(Oc3cnc4nc(Nc5ccc(CN6CC[C@H](OC)C6)c(C(F)(F)F)c5)n(C)c4c3Cl)c2cn1` [Example I-360, (S)-7-chloro-N-(4-((3-methoxypyrrolidin-1-yl)methyl)-3-(trifluoromethyl)phenyl)-1-methyl-6-((6-(methylamino)pyrazolo[1,5-a]pyrazin-3-yl)oxy)-1H-imidazo[4,5-b]pyridin-2-amine] had a Kd of 50 to 1000 nM.
On to `CNc1cn2ncc(Oc3cnc4nc(Nc5ccc(CN6CC[C@@H](OC)C6)c(C(F)(F)F)c5)n(C)c4c3Cl)c2cn1` [Example I-361, (R)-7-chloro-N-(4-((3-methoxypyrrolidin-1-yl)methyl)-3-(trifluoromethyl)phenyl)-1-methyl-6-((6-(methylamino)pyrazolo[1,5-a]pyrazin-3-yl)oxy)-1H-imidazo[4,5-b]pyridin-2-amine], for which the dissociation constant (Kd) lay within 50 to 1000 nM.
In turn, `Cn1c(Nc2cc3n(n2)CCCC3(F)F)nc2ncc(Oc3cnn4ccncc34)c(C#N)c21` [Example I-362, 2-((4,4-difluoro-4,5,6,7-tetrahydropyrazolo[1,5-a]pyridin-2-yl)amino)-1-methyl-6-(pyrazolo[1,5-a]pyrazin-3-yloxy)-1H-imidazo[4,5-b]pyridine-7-carbonitrile] yielded a Kd of 10 to 50 nM.
In the case of `COc1cn2ncc(Oc3cnc4nc(Nc5cc(C(F)(F)F)cn(C)c5=O)n(C)c4c3Cl)c2cn1` [Example I-363, 3-((7-chloro-6-((6-methoxypyrazolo[1,5-a]pyrazin-3-yl)oxy)-1-methyl-1H-imidazo[4,5-b]pyridin-2-yl)amino)-1-methyl-5-(trifluoromethyl)pyridin-2(1H)-one] it was 10 to 50 nM; in that of `COc1cn2ncc(Oc3cnc4nc(Nc5cc(C(F)(F)F)cn(C)c5=O)n(C)c4c3C#N)c2cn1` [Example I-364, 6-((6-methoxypyrazolo[1,5-a]pyrazin-3-yl)oxy)-1-methyl-2-((1-methyl-2-oxo-5-(trifluoromethyl)-1,2-dihydropyridin-3-yl)amino)-1H-imidazo[4,5-b]pyridine-7-carbonitrile], 10 to 50 nM.
In the case of `COCCOc1cn2ncc(Oc3cnc4nc(Nc5cc(C(F)(F)F)cn(C)c5=O)n(C)c4c3Cl)c2cn1` [Example I-365, 3-((7-chloro-6-((6-(2-methoxyethoxy)pyrazolo[1,5-a]pyrazin-3-yl)oxy)-1-methyl-1H-imidazo[4,5-b]pyridin-2-yl)amino)-1-methyl-5-(trifluoromethyl)pyridin-2(1H)-one] it was less than 10 nM; in that of `Cn1c(Nc2cc3n(n2)CCCC3(F)F)nc2ncc(Oc3cnn4ccccc34)c(C#N)c21` [Example I-366, 2-((4,4-difluoro-4,5,6,7-tetrahydropyrazolo[1,5-a]pyridin-2-yl)amino)-1-methyl-6-(pyrazolo[1,5-a]pyridin-3-yloxy)-1H-imidazo[4,5-b]pyridine-7-carbonitrile], less than 10 nM.
In the case of `COCCOc1cn2ncc(Oc3cnc4nc(Nc5cc(C(F)(F)F)cn(C)c5=O)n(C)c4c3C#N)c2cn1` [Example I-367, 6-((6-(2-methoxyethoxy)pyrazolo[1,5-a]pyrazin-3-yl)oxy)-1-methyl-2-((1-methyl-2-oxo-5-(trifluoromethyl)-1,2-dihydropyridin-3-yl)amino)-1H-imidazo[4,5-b]pyridine-7-carbonitrile] it was less than 10 nM.
For the compound `CN(C)c1n[nH]c2ncc(Oc3cnc4nc(Nc5cc(C(F)(F)F)cn(C)c5=O)n(C)c4c3C#N)cc12` [Example I-368, 6-((3-(dimethylamino)-1H-pyrazolo[3,4-b]pyridin-5-yl)oxy)-1-methyl-2-((1-methyl-2-oxo-5-(trifluoromethyl)-1,2-dihydropyridin-3-yl)amino)-1H-imidazo[4,5-b]pyridine-7-carbonitrile], the Kd was less than 10 nM.
In the case of `COCCOc1ccc2c(Oc3cnc4nc(Nc5cc6n(n5)CCCC6(F)F)n(C)c4c3C#N)cnn2c1` [Example I-369, 2-((4,4-difluoro-4,5,6,7-tetrahydropyrazolo[1,5-a]pyridin-2-yl)amino)-6-((6-(2-methoxyethoxy)pyrazolo[1,5-a]pyridin-3-yl)oxy)-1-methyl-1H-imidazo[4,5-b]pyridine-7-carbonitrile] it was less than 10 nM; in that of `Cn1c(Nc2cc3n(n2)CCCC3(F)F)nc2ncc(Oc3cnc4[nH]ncc4c3)c(C#N)c21` [Example I-370, 6-((1H-pyrazolo[3,4-b]pyridin-5-yl)oxy)-2-((4,4-difluoro-4,5,6,7-tetrahydropyrazolo[1,5-a]pyridin-2-yl)amino)-1-methyl-1H-imidazo[4,5-b]pyridine-7-carbonitrile], less than 10 nM.
In the case of `CNc1nccn2ncc(Oc3cnc4nc(Nc5cc6n(n5)CCCC6(F)F)n(C)c4c3C#N)c12` [Example I-373, 2-((4,4-difluoro-4,5,6,7-tetrahydropyrazolo[1,5-a]pyridin-2-yl)amino)-1-methyl-6-((4-(methylamino)pyrazolo[1,5-a]pyrazin-3-yl)oxy)-1H-imidazo[4,5-b]pyridine-7-carbonitrile] it was less than 10 nM; in that of `COc1ccc2c(Oc3cnc4nc(Nc5cc6n(n5)CCCC6(F)F)n(C)c4c3C#N)cnn2c1` [Example I-374, 2-((4,4-difluoro-4,5,6,7-tetrahydropyrazolo[1,5-a]pyridin-2-yl)amino)-6-((6-methoxypyrazolo[1,5-a]pyridin-3-yl)oxy)-1-methyl-1H-imidazo[4,5-b]pyridine-7-carbonitrile], less than 10 nM.
`COCCOc1cn2ncc(Oc3cnc4nc(Nc5cc(C6CC6)cn(C)c5=O)n(C)c4c3Cl)c2cn1` [Example I-375, 3-((7-chloro-6-((6-(2-methoxyethoxy)pyrazolo[1,5-a]pyrazin-3-yl)oxy)-1-methyl-1H-imidazo[4,5-b]pyridin-2-yl)amino)-5-cyclopropyl-1-methylpyridin-2(1H)-one] gave a Kd of less than 10 nM.
In the case of `Cn1cc(C(F)(F)F)cc(Nc2nc3ncc(Oc4cnn5cc(OCCN6CCOCC6)ncc45)c(Cl)c3n2C)c1=O` [Example I-376, 3-((7-chloro-1-methyl-6-((6-(2-morpholinoethoxy)pyrazolo[1,5-a]pyrazin-3-yl)oxy)-1H-imidazo[4,5-b]pyridin-2-yl)amino)-1-methyl-5-(trifluoromethyl)pyridin-2(1H)-one] it was less than 10 nM.
In the case of `Cn1cc(C(F)(F)F)cc(Nc2nc3ncc(Oc4cnn5cc(OCCN6CCOCC6)ncc45)c(C#N)c3n2C)c1=O` [Example I-377, 1-methyl-2-((1-methyl-2-oxo-5-(trifluoromethyl)-1,2-dihydropyridin-3-yl)amino)-6-((6-(2-morpholinoethoxy)pyrazolo[1,5-a]pyrazin-3-yl)oxy)-1H-imidazo[4,5-b]pyridine-7-carbonitrile] it was less than 10 nM; in that of `COc1n[nH]c2ncc(Oc3cnc4nc(Nc5cc6n(n5)CCCC6(F)F)n(C)c4c3C#N)cc12` [Example I-378, 2-((4,4-difluoro-4,5,6,7-tetrahydropyrazolo[1,5-a]pyridin-2-yl)amino)-6-((3-methoxy-1H-pyrazolo[3,4-b]pyridin-5-yl)oxy)-1-methyl-1H-imidazo[4,5-b]pyridine-7-carbonitrile], less than 10 nM.
In the case of `CNc1cc(F)c2c(Oc3cnc4nc(Nc5cc(C(F)(F)F)cn(C)c5=O)n(C)c4c3C#N)cnn2c1` [Example I-395, 6-((4-fluoro-6-(methylamino)pyrazolo[1,5-a]pyridin-3-yl)oxy)-1-methyl-2-((1-methyl-2-oxo-5-(trifluoromethyl)-1,2-dihydropyridin-3-yl)amino)-1H-imidazo[4,5-b]pyridine-7-carbonitrile] it was less than 10 nM; in that of `CNc1cn2ncc(Oc3cnc4nc(Nc5cc(C(F)(F)F)cn(C)c5=O)n(C)c4c3C#N)c2c(C)n1` [Example I-396, 1-methyl-2-((1-methyl-2-oxo-5-(trifluoromethyl)-1,2-dihydropyridin-3-yl)amino)-6-((4-methyl-6-(methylamino)pyrazolo[1,5-a]pyrazin-3-yl)oxy)-1H-imidazo[4,5-b]pyridine-7-carbonitrile], 10 to 50 nM; in that of `Cn1cc(C(F)(F)F)cc(Nc2nc3ncc(Oc4cnn5cc(OCCO)ncc45)c(Cl)c3n2C)c1=O` [Example I-397, 3-((7-chloro-6-((6-(2-hydroxyethoxy)pyrazolo[1,5-a]pyrazin-3-yl)oxy)-1-methyl-1H-imidazo[4,5-b]pyridin-2-yl)amino)-1-methyl-5-(trifluoromethyl)pyridin-2(1H)-one], less than 10 nM.
In the case of `Cn1c(Nc2cc3n(n2)CCCC3(C)C)nc2ncc(Oc3cnn4cc(OCCO)ncc34)c(Cl)c21` [Example I-398, 2-((3-((7-chloro-2-((4,4-dimethyl-4,5,6,7-tetrahydropyrazolo[1,5-a]pyridin-2-yl)amino)-1-methyl-1H-imidazo[4,5-b]pyridin-6-yl)oxy)pyrazolo[1,5-a]pyrazin-6-yl)oxy)ethan-1-ol], the Kd was less than 10 nM.
In the case of `COCc1n[nH]c2ncc(Oc3cnc4nc(Nc5cc6n(n5)CCCC6(F)F)n(C)c4c3C#N)cc12` [Example I-399, 2-((4,4-difluoro-4,5,6,7-tetrahydropyrazolo[1,5-a]pyridin-2-yl)amino)-6-((3-(methoxymethyl)-1H-pyrazolo[3,4-b]pyridin-5-yl)oxy)-1-methyl-1H-imidazo[4,5-b]pyridine-7-carbonitrile] it was less than 10 nM; in that of `Cn1c(Nc2cc(C(F)(F)F)n(C3CC4(CCOCC4)C3)n2)nc2ncc(Oc3cnc4[nH]ncc4c3)c(C#N)c21` [Example I-400, 6-((1H-pyrazolo[3,4-b]pyridin-5-yl)oxy)-2-((1-(7-oxaspiro[3.5]nonan-2-yl)-5-(trifluoromethyl)-1H-pyrazol-3-yl)amino)-1-methyl-1H-imidazo[4,5-b]pyridine-7-carbonitrile], less than 10 nM; in that of `Cn1c(Nc2cc(C(F)(F)F)n(C3CC4(CCOCC4)C3)n2)nc2ncc(Oc3cnc4[nH]ccc4c3)c(C#N)c21` [Example I-401, 6-((1H-pyrrolo[2,3-b]pyridin-5-yl)oxy)-2-((1-(7-oxaspiro[3.5]nonan-2-yl)-5-(trifluoromethyl)-1H-pyrazol-3-yl)amino)-1-methyl-1H-imidazo[4,5-b]pyridine-7-carbonitrile], 10 to 50 nM.
